From ChEMBL document CHEMBL5032500, “Adenosine A2AR/A1R Antagonists Enabling Additional H3R Antagonism for the Treatment of Parkinson's Disease” (J Med Chem, 2021)
Active and inactive are the calls of the source. The calls are words filed in the database; no cut-off is given here.

How the values were obtained:
Adenosine receptor A1 = biological target: T1, Adenosine receptor A1 (Homo sapiens, UniProt P30542); assay: Displacement of [3H]CCPA from human recombinant adenosine A1 receptor expressed in CHO cells by liquid scintillation counting analysis; assay type: cell-based
T1 sequence (P30542 whole entry): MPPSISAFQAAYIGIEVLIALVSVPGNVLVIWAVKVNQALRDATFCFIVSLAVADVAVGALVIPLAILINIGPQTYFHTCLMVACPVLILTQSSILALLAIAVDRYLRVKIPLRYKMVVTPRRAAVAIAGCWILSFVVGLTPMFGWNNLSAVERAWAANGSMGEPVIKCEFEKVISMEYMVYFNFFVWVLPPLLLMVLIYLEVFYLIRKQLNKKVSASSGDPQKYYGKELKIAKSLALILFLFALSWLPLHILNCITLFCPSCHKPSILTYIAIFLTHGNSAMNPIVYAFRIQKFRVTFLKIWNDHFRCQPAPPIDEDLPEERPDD

Adenosine receptor A2a [1] = biological target: T2, Adenosine receptor A2a (Homo sapiens, UniProt P29274); assay: Displacement of [3H]MSX-2 from human recombinant adenosine A2A receptor expressed in CHO cells by liquid scintillation counting analysis; assay type: cell-based
T2 sequence (P29274 whole entry): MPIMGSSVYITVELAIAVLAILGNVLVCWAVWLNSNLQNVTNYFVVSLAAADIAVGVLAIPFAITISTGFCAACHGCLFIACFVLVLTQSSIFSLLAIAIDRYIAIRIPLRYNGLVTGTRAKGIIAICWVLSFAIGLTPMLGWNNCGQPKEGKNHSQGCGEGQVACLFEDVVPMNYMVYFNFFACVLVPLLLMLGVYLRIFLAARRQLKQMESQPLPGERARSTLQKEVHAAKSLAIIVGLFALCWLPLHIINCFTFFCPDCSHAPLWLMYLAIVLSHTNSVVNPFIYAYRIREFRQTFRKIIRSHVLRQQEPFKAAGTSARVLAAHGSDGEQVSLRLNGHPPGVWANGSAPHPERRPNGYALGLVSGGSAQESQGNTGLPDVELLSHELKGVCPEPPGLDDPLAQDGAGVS

Adenosine receptor A2b = biological target: T3, Adenosine receptor A2b (Homo sapiens, UniProt P29275); assay: Displacement of [3H]PSB-603 from human recombinant adenosine A2B receptor expressed in CHO cells by liquid scintillation counting analysis; assay type: cell-based
T3 sequence (P29275 whole entry): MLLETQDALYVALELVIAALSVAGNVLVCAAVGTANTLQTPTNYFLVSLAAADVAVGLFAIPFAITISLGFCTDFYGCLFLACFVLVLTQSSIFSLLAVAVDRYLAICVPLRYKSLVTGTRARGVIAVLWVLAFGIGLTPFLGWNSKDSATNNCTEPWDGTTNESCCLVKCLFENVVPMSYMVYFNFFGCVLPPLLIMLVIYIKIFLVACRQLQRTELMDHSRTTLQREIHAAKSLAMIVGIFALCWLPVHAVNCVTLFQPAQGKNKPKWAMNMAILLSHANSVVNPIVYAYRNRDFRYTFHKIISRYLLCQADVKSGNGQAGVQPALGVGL

Adenosine receptor A3 = biological target: T4, Adenosine receptor A3 (Homo sapiens, UniProt P0DMS8); assay: Displacement of [3H]PSB-11 from human recombinant adenosine A3 receptor expressed in CHO cells by liquid scintillation counting analysis; assay type: cell-based
T4 sequence (P0DMS8 whole entry): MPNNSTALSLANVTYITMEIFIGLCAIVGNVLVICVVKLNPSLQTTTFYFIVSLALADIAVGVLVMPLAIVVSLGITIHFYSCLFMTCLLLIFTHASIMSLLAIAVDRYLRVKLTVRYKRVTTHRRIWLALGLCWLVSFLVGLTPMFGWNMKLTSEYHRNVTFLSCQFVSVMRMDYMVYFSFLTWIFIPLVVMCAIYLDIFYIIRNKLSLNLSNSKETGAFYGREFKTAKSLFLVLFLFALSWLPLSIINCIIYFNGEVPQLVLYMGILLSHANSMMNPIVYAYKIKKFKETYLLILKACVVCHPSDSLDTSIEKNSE

Histamine H3 receptor = Histamine H3 receptor (Homo sapiens, UniProt Q9Y5N1); assay: Displacement of [3H] N-alpha methylhistamine from human recombinant histamine H3 receptor expressed in HEK293 cells measured after 90 mins; assay type: cell-based
Chain of Histamine H3 receptor (Q9Y5N1 whole entry): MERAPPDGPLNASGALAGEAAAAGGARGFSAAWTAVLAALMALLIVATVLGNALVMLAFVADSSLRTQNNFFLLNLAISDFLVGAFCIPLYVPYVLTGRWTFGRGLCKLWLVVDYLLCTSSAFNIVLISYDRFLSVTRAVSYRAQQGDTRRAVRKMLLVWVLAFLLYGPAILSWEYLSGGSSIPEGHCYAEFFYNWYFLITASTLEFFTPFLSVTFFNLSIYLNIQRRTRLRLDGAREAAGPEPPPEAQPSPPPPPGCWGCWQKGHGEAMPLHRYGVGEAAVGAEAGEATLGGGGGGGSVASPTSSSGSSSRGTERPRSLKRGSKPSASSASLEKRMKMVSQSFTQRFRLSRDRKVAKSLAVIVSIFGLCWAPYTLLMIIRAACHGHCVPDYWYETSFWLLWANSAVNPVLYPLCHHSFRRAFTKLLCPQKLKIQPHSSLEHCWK

Adenosine receptor A2a [2] = biological target: T2, Adenosine receptor A2a; assay: […] activity at human recombinant adenosine A2A receptor expressed in CHO cells assessed as inhibition of NECA-induced cAMP accumulation incubated for 20 mins by radioligand competition binding assay; assay type: functional, cell-based
Histamine H1 receptor = Histamine H1 receptor (Homo sapiens, UniProt P35367); assay: Displacement of [3H]pyrilamine from human recombinant histamine H1 receptor expressed in CHO cells by liquid scintillation counting analysis; assay type: cell-based
Chain of Histamine H1 receptor (P35367 whole entry): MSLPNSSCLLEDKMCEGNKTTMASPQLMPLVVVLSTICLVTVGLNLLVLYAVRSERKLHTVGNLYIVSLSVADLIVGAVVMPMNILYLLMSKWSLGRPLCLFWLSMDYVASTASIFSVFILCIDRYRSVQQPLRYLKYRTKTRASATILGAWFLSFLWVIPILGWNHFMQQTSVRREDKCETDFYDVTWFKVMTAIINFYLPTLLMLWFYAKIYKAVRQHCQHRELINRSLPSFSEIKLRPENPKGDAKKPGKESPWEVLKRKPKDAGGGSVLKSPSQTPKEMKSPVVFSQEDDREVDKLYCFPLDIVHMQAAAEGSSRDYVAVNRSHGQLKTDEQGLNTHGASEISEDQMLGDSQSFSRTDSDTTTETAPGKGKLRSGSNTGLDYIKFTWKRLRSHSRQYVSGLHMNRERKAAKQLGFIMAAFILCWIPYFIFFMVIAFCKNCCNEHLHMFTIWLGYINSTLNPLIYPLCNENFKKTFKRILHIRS

Histamine H4 receptor = Histamine H4 receptor (Homo sapiens, UniProt Q9H3N8); assay: Displacement of [3H]histamine from human recombinant histamine H4 receptor expressed in sf9 cells by liquid scintillation counting analysis
Chain of Histamine H4 receptor (Q9H3N8 whole entry): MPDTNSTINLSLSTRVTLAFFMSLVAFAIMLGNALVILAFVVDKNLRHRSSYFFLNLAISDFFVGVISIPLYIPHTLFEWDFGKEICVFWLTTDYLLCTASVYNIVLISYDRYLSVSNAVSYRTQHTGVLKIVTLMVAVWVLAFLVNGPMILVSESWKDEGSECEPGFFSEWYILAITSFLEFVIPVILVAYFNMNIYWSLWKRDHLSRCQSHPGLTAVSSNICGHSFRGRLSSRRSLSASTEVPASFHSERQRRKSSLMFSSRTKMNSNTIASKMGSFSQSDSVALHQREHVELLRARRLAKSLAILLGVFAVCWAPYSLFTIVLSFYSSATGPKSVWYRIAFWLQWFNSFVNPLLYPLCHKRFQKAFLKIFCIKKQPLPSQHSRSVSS

[3] = Displacement of [3H]SCH23390 from human recombinant dopamine D1 receptor expressed in HEK293 cells by liquid scintillation counting analysis; assay type: cell-based
D(1B) dopamine receptor = D(1B) dopamine receptor (Homo sapiens, UniProt P21918); assay: Displacement of [3H]SCH23390 from human recombinant dopamine D5 receptor expressed in HEK293 cells by liquid scintillation counting analysis; assay type: cell-based
Chain of D(1B) dopamine receptor (P21918 whole entry): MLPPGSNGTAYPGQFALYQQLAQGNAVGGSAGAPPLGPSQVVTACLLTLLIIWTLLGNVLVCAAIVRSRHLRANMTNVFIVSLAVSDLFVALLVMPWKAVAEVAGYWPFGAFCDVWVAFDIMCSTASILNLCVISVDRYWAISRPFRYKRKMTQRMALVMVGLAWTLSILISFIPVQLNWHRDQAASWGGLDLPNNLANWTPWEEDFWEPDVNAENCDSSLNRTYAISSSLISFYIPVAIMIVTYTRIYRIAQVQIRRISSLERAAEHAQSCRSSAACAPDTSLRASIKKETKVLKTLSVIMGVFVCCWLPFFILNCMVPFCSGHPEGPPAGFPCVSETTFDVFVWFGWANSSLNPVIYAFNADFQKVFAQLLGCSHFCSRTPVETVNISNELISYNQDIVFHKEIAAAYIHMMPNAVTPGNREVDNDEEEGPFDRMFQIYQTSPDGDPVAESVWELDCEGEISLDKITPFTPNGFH

D(2) dopamine receptor = D(2) dopamine receptor (Homo sapiens, UniProt P14416); assay: Displacement of [3H]spiperone from human recombinant dopamine D2S receptor expressed in CHO cells by liquid scintillation counting analysis; assay type: cell-based
Chain of D(2) dopamine receptor (P14416 whole entry): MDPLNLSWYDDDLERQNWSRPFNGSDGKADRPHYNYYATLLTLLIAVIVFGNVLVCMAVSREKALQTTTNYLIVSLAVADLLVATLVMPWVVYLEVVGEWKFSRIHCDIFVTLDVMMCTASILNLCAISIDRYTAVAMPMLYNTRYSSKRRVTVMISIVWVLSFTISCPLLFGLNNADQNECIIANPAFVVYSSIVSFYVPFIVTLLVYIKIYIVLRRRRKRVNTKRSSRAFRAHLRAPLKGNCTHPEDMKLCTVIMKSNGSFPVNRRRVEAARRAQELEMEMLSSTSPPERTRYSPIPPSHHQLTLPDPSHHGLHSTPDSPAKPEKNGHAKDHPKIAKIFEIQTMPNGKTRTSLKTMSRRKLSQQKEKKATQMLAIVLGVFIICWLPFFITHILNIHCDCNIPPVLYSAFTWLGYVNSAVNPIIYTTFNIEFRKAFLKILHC

D(3) dopamine receptor = D(3) dopamine receptor (Homo sapiens, UniProt P35462); assay: Displacement of [3H]spiperone from human recombinant dopamine D3 receptor expressed in CHO cells by liquid scintillation counting analysis; assay type: cell-based
Chain of D(3) dopamine receptor (P35462 whole entry): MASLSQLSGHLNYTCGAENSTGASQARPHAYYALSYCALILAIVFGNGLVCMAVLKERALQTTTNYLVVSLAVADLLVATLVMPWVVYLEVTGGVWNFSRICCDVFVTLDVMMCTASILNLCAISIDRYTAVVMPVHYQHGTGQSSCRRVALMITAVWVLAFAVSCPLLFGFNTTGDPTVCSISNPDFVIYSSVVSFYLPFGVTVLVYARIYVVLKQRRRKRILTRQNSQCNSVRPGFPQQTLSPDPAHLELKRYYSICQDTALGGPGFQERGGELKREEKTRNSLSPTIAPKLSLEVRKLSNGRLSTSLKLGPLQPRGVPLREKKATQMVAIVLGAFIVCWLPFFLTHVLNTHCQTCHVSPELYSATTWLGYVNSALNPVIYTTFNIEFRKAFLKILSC

MAO-A = MAO-A (Homo sapiens, UniProt P21397); assay: Inhibition of human recombinant MAO-A using kynuramine as substrate at 10 uM measured for 30 mins by spectrophotometric analysis; details: probe kynuramine
Chain of MAO-A (P21397 whole entry): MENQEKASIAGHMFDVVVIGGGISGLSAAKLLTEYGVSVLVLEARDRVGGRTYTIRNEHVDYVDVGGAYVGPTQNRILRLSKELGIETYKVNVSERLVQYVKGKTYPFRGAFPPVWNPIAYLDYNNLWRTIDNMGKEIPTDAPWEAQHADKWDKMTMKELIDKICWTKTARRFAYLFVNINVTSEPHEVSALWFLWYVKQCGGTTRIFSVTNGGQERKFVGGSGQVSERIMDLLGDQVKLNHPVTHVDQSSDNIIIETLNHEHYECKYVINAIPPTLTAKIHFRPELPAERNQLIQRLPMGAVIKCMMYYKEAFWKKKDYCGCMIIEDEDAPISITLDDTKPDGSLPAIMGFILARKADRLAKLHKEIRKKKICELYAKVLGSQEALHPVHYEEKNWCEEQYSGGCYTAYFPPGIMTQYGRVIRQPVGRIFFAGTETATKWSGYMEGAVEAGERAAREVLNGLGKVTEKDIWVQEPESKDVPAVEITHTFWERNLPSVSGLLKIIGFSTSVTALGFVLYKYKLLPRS

MAO-B = MAO-B (Homo sapiens, UniProt P27338); assay: Inhibition of human recombinant MAO-B using kynuramine as substrate at 10 uM measured for 30 mins by spectrophotometric analysis; details: probe kynuramine
Chain of MAO-B (P27338 whole entry): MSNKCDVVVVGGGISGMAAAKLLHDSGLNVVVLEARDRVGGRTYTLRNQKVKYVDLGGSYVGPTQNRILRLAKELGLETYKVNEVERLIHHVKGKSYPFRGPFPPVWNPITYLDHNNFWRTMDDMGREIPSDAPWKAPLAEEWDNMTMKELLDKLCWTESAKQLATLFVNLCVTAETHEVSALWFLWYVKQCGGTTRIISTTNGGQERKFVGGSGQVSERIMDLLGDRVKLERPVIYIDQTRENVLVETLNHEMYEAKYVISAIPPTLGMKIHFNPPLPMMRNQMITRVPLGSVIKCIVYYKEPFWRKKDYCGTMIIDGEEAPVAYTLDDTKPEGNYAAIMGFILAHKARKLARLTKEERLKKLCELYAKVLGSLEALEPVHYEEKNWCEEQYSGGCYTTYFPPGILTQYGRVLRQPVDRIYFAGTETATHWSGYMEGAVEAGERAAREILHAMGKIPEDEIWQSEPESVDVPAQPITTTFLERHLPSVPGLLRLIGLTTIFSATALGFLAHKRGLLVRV

Rattus norvegicus = assay: Antiparkinson's activity in ip dosed L-DOPA induced dyskinesia Sprague-Dawley rat model assessed as reduction in dyskinesia by measuring abnormal involuntary movement upto 21 days; assay type: functional, organism-based; details: dose 0.1-1 mg/kg, time day <=21
Mus musculus [4] = assay: Induction of wakefulness in C57BL/6 mouse at 1 mg/kg, po by EEG analysis; assay type: functional, organism-based
Mus musculus [5] = assay: Induction of wakefulness in C57BL/6 mouse assessed as increase in time spent awake at 2 mg/kg, po by EEG analysis; assay type: functional, organism-based
Mus musculus [6] = assay: Induction of wake promoting activity in C57BL/6 mouse assessed as reduction in slow wave sleep at 2 mg/kg, po by EEG analysis; assay type: functional, organism-based
[7] = Toxicity in C57BL/6 mouse assessed as effect on paradoxical sleep at 2 mg/kg, po by EEG analysis; assay type: organism-based; details: in vivo
Homo sapiens [8] = organism: Homo sapiens; assay: Selectivity index, ratio of Ki for human recombinant adenosine A1 receptor to Ki for human recombinant histamine H3 receptor
Homo sapiens [9] = organism: Homo sapiens; assay: Selectivity index, ratio of Ki for human recombinant adenosine A2A receptor to Ki for human recombinant histamine H3 receptor
Homo sapiens [10] = organism: Homo sapiens; assay: Selectivity index, ratio of Ki for human recombinant adenosine A2B receptor to Ki for human recombinant histamine H3 receptor
Homo sapiens [11] = organism: Homo sapiens; assay: Selectivity index, ratio of Ki for human recombinant adenosine A3 receptor to Ki for human recombinant histamine H3 receptor
Homo sapiens [12] = organism: Homo sapiens; assay: Selectivity index, ratio of Ki for human recombinant dopamine D2S receptor to Ki for human recombinant histamine H3 receptor
Homo sapiens [13] = organism: Homo sapiens; assay: Selectivity index, ratio of Ki for human recombinant dopamine D3 receptor to Ki for human recombinant histamine H3 receptor
Homo sapiens [14] = organism: Homo sapiens; assay: Selectivity index, ratio of Ki for human recombinant adenosine A2A receptor to Ki for human recombinant adenosine A1 receptor
Homo sapiens [15] = organism: Homo sapiens; assay: Selectivity index, ratio of Ki for human recombinant adenosine A2B receptor to Ki for human recombinant adenosine A1 receptor
[16] = biological target: Adenosine receptors; A1 & A3 (Homo sapiens) (UniProt P30542+P0DMS8); assay: Selectivity index, ratio of Ki for human recombinant adenosine A3 receptor to Ki for human recombinant adenosine A1 receptor; assay type: protein assay
Homo sapiens [17] = organism: Homo sapiens; assay: Selectivity index, ratio of Ki for human recombinant dopamine D2S receptor to Ki for human recombinant adenosine A1 receptor
Homo sapiens [18] = organism: Homo sapiens; assay: Selectivity index, ratio of Ki for human recombinant dopamine D3 receptor to Ki for human recombinant adenosine A1 receptor
Homo sapiens [19] = organism: Homo sapiens; assay: Selectivity index, ratio of Ki for human recombinant adenosine A2B receptor to Ki for human recombinant adenosine A2A receptor
Homo sapiens [20] = organism: Homo sapiens; assay: Selectivity index, ratio of Ki for human recombinant adenosine A3 receptor to Ki for human recombinant adenosine A2A receptor
Homo sapiens [21] = organism: Homo sapiens; assay: Selectivity index, ratio of Ki for human recombinant dopamine D2S receptor to Ki for human recombinant adenosine A2A receptor
Homo sapiens [22] = organism: Homo sapiens; assay: Selectivity index, ratio of Ki for human recombinant dopamine D3 receptor to Ki for human recombinant adenosine A2A receptor
Homo sapiens [23] = organism: Homo sapiens; assay: Selectivity index, ratio of Ki for human recombinant adenosine A3 receptor to Ki for human recombinant adenosine A2B receptor
Homo sapiens [24] = organism: Homo sapiens; assay: Selectivity index, ratio of Ki for human recombinant dopamine D2S receptor to Ki for human recombinant adenosine A2B receptor
Homo sapiens [25] = organism: Homo sapiens; assay: Selectivity index, ratio of Ki for human recombinant dopamine D3 receptor to Ki for human recombinant adenosine A2B receptor
Homo sapiens [26] = organism: Homo sapiens; assay: Selectivity index, ratio of Ki for human recombinant dopamine D2S receptor to Ki for human recombinant adenosine A3 receptor
Homo sapiens [27] = organism: Homo sapiens; assay: Selectivity index, ratio of Ki for human recombinant dopamine D3 receptor to Ki for human recombinant adenosine A3 receptor
Homo sapiens [28] = organism: Homo sapiens; assay: Selectivity index, ratio of Ki for human recombinant dopamine D3 receptor to Ki for human recombinant dopamine D2S receptor
[29] = biological target: Amine oxidase [flavin-containing] B (Homo sapiens, UniProt P27338); assay: Inhibition of human recombinant MAO-B using kynuramine as substrate measured for 30 mins by spectrophotometric analysis
Chain of Amine oxidase [flavin-containing] B (P27338 whole entry): as above

| SMILES | Ki (Adenosine receptor A1) [µM] | Ki (Adenosine receptor A2a [1]) [µM] | Ki (Adenosine receptor A2b) [µM] | Ki (Adenosine receptor A3) [µM] | Ki (Histamine H3 receptor) [µM] | Activity (Adenosine receptor A2a [2]) | Ki (Histamine H1 receptor) [µM] | Ki (Histamine H4 receptor) [µM] | Ki [3] [µM] | Ki (D(1B) dopamine receptor) [µM] | Ki (D(2) dopamine receptor) [µM] | Ki (D(3) dopamine receptor) [µM] | inhibition at 0.5 h, 10 µM (MAO-A) [%] | inhibition at 0.5 h, 10 µM (MAO-B) [%] | Activity (Rattus norvegicus) | Ratio Ki (Homo sapiens [8]) | Ratio Ki (Homo sapiens [9]) | Ratio Ki (Homo sapiens [10]) | Ratio Ki (Homo sapiens [11]) | Ratio Ki (Homo sapiens [12]) | other results |
| --- | --- | --- | --- | --- | --- | --- | --- | --- | --- | --- | --- | --- | --- | --- | --- | --- | --- | --- | --- | --- | --- |
| Nc1nc(-c2ccccc2)c2c(n1)-c1cc(OCCCN3CCCCC3)ccc1C2=O | 0.0112 | 0.00401 | 0.0435 | 0.15 | 0.052 | inactive | > 1 | > 10 | > 1 | > 1 | 1.59 | 0.364 | 16 | 50 | Dose-Dependent Effect | 0.22 | 0.08 | 0.84 | 3 | 31 | Activity (Mus musculus [4]): inactive; Activity (Mus musculus [5]): Active; Activity (Mus musculus [6]): Active; Activity [7]: Non-Toxic; Ratio Ki (Homo sapiens [13]): 7; Ratio Ki (Homo sapiens [14]): 0.36; Ratio Ki (Homo sapiens [15]): 4; Ratio Ki [16]: 13; Ratio Ki (Homo sapiens [17]): 142; Ratio Ki (Homo sapiens [18]): 33; Ratio Ki (Homo sapiens [19]): 11; Ratio Ki (Homo sapiens [20]): 37; Ratio Ki (Homo sapiens [21]): 396; Ratio Ki (Homo sapiens [22]): 91; Ratio Ki (Homo sapiens [23]): 3; Ratio Ki (Homo sapiens [24]): 36; Ratio Ki (Homo sapiens [25]): 8; Ratio Ki (Homo sapiens [26]): 11; Ratio Ki (Homo sapiens [27]): 2; Ratio Ki (Homo sapiens [28]): 0.23 |
| Nc1nc(-c2ccccc2)c2c(n1)-c1cc(OCCCN3CCCC3)ccc1C2 | 0.0115 | 0.00725 | 0.0369 | 0.15 | 0.011 | inactive | > 1 | > 10 | > 1 | > 1 | 1.25 | 0.29 | 7.4 | 57 | Dose-Dependent Effect | 1 | 0.66 | 3 | 14 | 113 | IC50 [29]: > 1 µM; Ratio Ki (Homo sapiens [13]): 26; Ratio Ki (Homo sapiens [14]): 0.63; Ratio Ki (Homo sapiens [15]): 3; Ratio Ki [16]: 13; Ratio Ki (Homo sapiens [17]): 108; Ratio Ki (Homo sapiens [18]): 25; Ratio Ki (Homo sapiens [19]): 5; Ratio Ki (Homo sapiens [20]): 21; Ratio Ki (Homo sapiens [21]): 172; Ratio Ki (Homo sapiens [22]): 40; Ratio Ki (Homo sapiens [23]): 4; Ratio Ki (Homo sapiens [24]): 34; Ratio Ki (Homo sapiens [25]): 8; Ratio Ki (Homo sapiens [26]): 8; Ratio Ki (Homo sapiens [27]): 2; Ratio Ki (Homo sapiens [28]): 0.23 |
